Reference: patent US20140343000A1 (priority 2011, published 2014)

system: recombinant NL4-3 virus (Renilla luciferase in nef, Gag P373S; NLRluc) in MT-2 cells; assay: whole plant or invertebrate; assay type: cell-based, HIV; settings: Renilla, NL43
In short: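 Luciferase signal is the read-out: after 4-5 days of infection in the presence of serially diluted compound, MT-2 cells are lysed with a premix of lysis buffer, luciferase reagent and Stop & Glo substrate, and luminescence is read immediately.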

Structure (SMILES)	EC50
C=C(C)[C@@H]1CC[C@]2(NCCN3CCC(C(=O)N(C)C)CC3)CC[C@]3(C)[C@H](CC[C@@H]4[C@@]5(C)CC=C(c6ccc(C(=O)O)cc6)C(C)(C)[C@@H]5CC[C@]43C)[C@@H]12 [Example 171, 4-((1R,3aS,5aR,5bR,7aR,11aS,11bR,13aR,13bR)-3a-(2-(4-(dimethylcarbamoyl)piperidin-1-yl)ethylamino)-5a,5b,8,8,11a-pentamethyl-1-(prop-1-en-2-yl)-2,3,3a,4,5,5a,5b,6,7,7a,8,11,11a,11b,12,13,13a,13b-octadecahydro-1H-cyclopenta[a]chrysen-9-yl)benzoic acid]	< 100 nM

same assay, conditions: Renilla, NL43, luciferase activity in cells infected for 4-5 days with NLRluc recombinants, serial dilutions of inhibitor; class symbols (key in Table 1); read-out: EC50

Structure (SMILES)	EC50
C=C(C)[C@@H]1CC[C@]2(NCCNc3ncccn3)CC[C@]3(C)[C@H](CC[C@@H]4[C@@]5(C)CC=C(c6ccc(C(=O)O)cc6)C(C)(C)[C@@H]5CC[C@]43C)[C@@H]12 [Example 199, 4-((1R,3aS,5aR,5bR,7aR,11aS,11bR,13aR,13bR)-5a,5b,8,8,11a-pentamethyl-1-(prop-1-en-2-yl)-3a-(2-(pyrimidin-2-ylamino)ethylamino)-2,3,3a,4,5,5a,5b,6,7,7a,8,11,11a,11b,12,13,13a,13b-octadecahydro-1H-cyclopenta[a]chrysen-9-yl)benzoic acid]	< 100 nM
CC(C)[C@@H]1CC[C@]2(NCCN3CCN(S(C)(=O)=O)CC3)CC[C@]3(C)[C@H](CC[C@@H]4[C@@]5(C)CC[C@H](c6ccc(C(=O)O)cc6)C(C)(C)[C@@H]5CC[C@]43C)[C@@H]12 [Example B16, 4-((1S,3aS,5aR,5bR,7aS,9S,11aS,11bR,13aR,13bR)-1-isopropyl-5a,5b,8,8,11a-pentamethyl-3a-((2-(4-(methylsulfonyl)piperazin-1-yl)ethyl)amino)icosahydro-1H-cyclopenta[a]chrysen-9-yl)benzoic acid]	< 100 nM
C=C(C)[C@@H]1CC[C@]2(NC(=O)Cc3cnccn3)CC[C@]3(C)[C@H](CC[C@@H]4[C@@]5(C)CC=C(c6ccc(C(=O)O)cc6)C(C)(C)[C@@H]5CC[C@]43C)[C@@H]12 [Example 102, 4-((1R,3aS,5aR,5bR,7aR,11aS,11bR,13aR,13bR)-5a,5b,8,8,11a-pentamethyl-1-(prop-1-en-2-yl)-3a-(2-(pyrazin-2-yl)acetamido)-2,3,3a,4,5,5a,5b,6,7,7a,8,11,11a,11b,12,13,13a,13b-octadecahydro-1H-cyclopenta[a]chrysen-9-yl)benzoic acid]	< 100 nM
C=C(C)[C@@H]1CC[C@]2(NC(=O)C(=O)Nc3nncs3)CC[C@]3(C)[C@H](CC[C@@H]4[C@@]5(C)CC=C(c6ccc(C(=O)O)cc6)C(C)(C)[C@@H]5CC[C@]43C)[C@@H]12 [Example 78, 4-((1R,3aS,5aR,5bR,7aR,11aS,11bR,13aR,13bR)-3a-(2-(1,3,4-thiadiazol-2-ylamino)-2-oxoacetamido)-5a,5b,8,8,11a-pentamethyl-1-(prop-1-en-2-yl)-2,3,3a,4,5,5a,5b,6,7,7a,8,11,11a,11b,12,13,13a,13b-octadecahydro-1H-cyclopenta[a]chrysen-9-yl)benzoic acid]	< 100 nM
C=C(C)[C@@H]1CC[C@]2(NC(=O)NCCN3CCS(=O)(=O)CC3)CC[C@]3(C)[C@H](CC[C@@H]4[C@@]5(C)CC=C(c6ccc(C(=O)O)cc6)C(C)(C)[C@@H]5CC[C@]43C)[C@@H]12 [Example 21, 4-((1R,3aS,5aR,5bR,7aR,11aS,11bR,13aR,13bR)-3a-(((2-(1,1-dioxido-4-thiomorpholinyl)ethyl)carbamoyl)amino)-1-isopropenyl-5a,5b,8,8,11a-pentamethyl-2,3,3a,4,5,5a,5b,6,7,7a,8,11,11a,11b,12,13,13a,13b-octadecahydro-1H-cyclopenta[a]chrysen-9-yl)benzoic acid]	< 100 nM
C=C(C)[C@@H]1CC[C@]2(NC(=O)NC3(CN(CC)CC)CC3)CC[C@]3(C)[C@H](CC[C@@H]4[C@@]5(C)CC=C(c6ccc(C(=O)O)cc6)C(C)(C)[C@@H]5CC[C@]43C)[C@@H]12 [Example 7, 4-((1R,3aS,5aR,5bR,7aR,11aS,11bR,13aR,13bR)-3a-(3-(1-((diethylamino)methyl)cyclopropyl)ureido)-5a,5b,8,8,11a-pentamethyl-1-(prop-1-en-2-yl)-2,3,3a,4,5,5a,5b,6,7,7a,8,11,11a,11b,12,13,13a,13b-octadecahydro-1H-cyclopenta[a]chrysen-9-yl)benzoic acid]	< 100 nM
C=C(C)[C@@H]1CC[C@]2(NCC(=O)N(CC)CC)CC[C@]3(C)[C@H](CC[C@@H]4[C@@]5(C)CC=C(c6ccc(C(=O)O)cc6)C(C)(C)[C@@H]5CC[C@]43C)[C@@H]12 [Example 149, 4-((1R,3aS,5aR,5bR,7aR,11aS,11bR,13aR,13bR)-3a-(2-(diethylamino)-2-oxoethylamino)-5a,5b,8,8,11a-pentamethyl-1-(prop-1-en-2-yl)-2,3,3a,4,5,5a,5b,6,7,7a,8,11,11a,11b,12,13,13a,13b-octadecahydro-1H-cyclopenta[a]chrysen-9-yl)benzoic acid]	< 100 nM
C=C(C)[C@@H]1CC[C@]2(NC(=O)N(C)CCN3CCCC3)CC[C@]3(C)[C@H](CC[C@@H]4[C@@]5(C)CC=C(c6ccc(C(=O)O)cc6)C(C)(C)[C@@H]5CC[C@]43C)[C@@H]12 [Example 44, 4-((1R,3aS,5aR,5bR,7aR,11aS,11bR,13aR,13bR)-5a,5b,8,8,11a-pentamethyl-3a-(3-methyl-3-(2-(pyrrolidin-1-yl)ethyl)ureido)-1-(prop-1-en-2-yl)-2,3,3a,4,5,5a,5b,6,7,7a,8,11,11a,11b,12,13,13a,13b-octadecahydro-1H-cyclopenta[a]chrysen-9-yl)benzoic acid]	< 100 nM
C=C(C)[C@@H]1CC[C@]2(NC(=O)NCCNS(C)(=O)=O)CC[C@]3(C)[C@H](CC[C@@H]4[C@@]5(C)CC=C(c6ccc(C(=O)O)cc6)C(C)(C)[C@@H]5CC[C@]43C)[C@@H]12 [Example 47, 4-((1R,3aS,5aR,5bR,7aR,11aS,11bR,13aR,13bR)-5a,5b,8,8,11a-pentamethyl-3a-(3-(2-(methylsulfonamido)ethyl)ureido)-1-(prop-1-en-2-yl)-2,3,3a,4,5,5a,5b,6,7,7a,8,11,11a,11b,12,13,13a,13b-octadecahydro-1H-cyclopenta[a]chrysen-9-yl)benzoic acid]	< 100 nM
C=C(C)[C@@H]1CC[C@]2(NCC(=O)NC)CC[C@]3(C)[C@H](CC[C@@H]4[C@@]5(C)CC=C(c6ccc(C(=O)O)cc6)C(C)(C)[C@@H]5CC[C@]43C)[C@@H]12 [Example 148, 4-((1R,3aS,5aR,5bR,7aR,11aS,11bR,13aR,13bR)-5a,5b,8,8,11a-pentamethyl-3a-(2-(methylamino)-2-oxoethylamino)-1-(prop-1-en-2-yl)-2,3,3a,4,5,5a,5b,6,7,7a,8,11,11a,11b,12,13,13a,13b-octadecahydro-1H-cyclopenta[a]chrysen-9-yl)benzoic acid]	< 100 nM
C=C(C)[C@@H]1CC[C@]2(NCCc3ccncc3)CC[C@]3(C)[C@H](CC[C@@H]4[C@@]5(C)CC=C(c6ccc(C(=O)O)cc6)C(C)(C)[C@@H]5CC[C@]43C)[C@@H]12 [Example 166, 4-((1R,3aS,5aR,5bR,7aR,11aS,11bR,13aR,13bR)-5a,5b,8,8,11a-pentamethyl-1-(prop-1-en-2-yl)-3a-((2-(pyridin-4-yl)ethyl)amino)-2,3,3a,4,5,5a,5b,6,7,7a,8,11,11a,11b,12,13,13a,13b-octadecahydro-1H-cyclopenta[a]chrysen-9-yl)benzoic acid]	< 100 nM
C=C(C)[C@@H]1CC[C@]2(NC(=O)OCCCCN3CCS(=O)(=O)CC3)CC[C@]3(C)[C@H](CC[C@@H]4[C@@]5(C)CC=C(c6ccc(C(=O)O)cc6)C(C)(C)[C@@H]5CC[C@]43C)[C@@H]12 [Example 72, benzoic acid, 4-[(1R,3aS,5aR,5bR,7aR,11aS,11bR,13aR,13bR)-3a-[[[4-(1,1-dioxido-4-thiomorpholinyl)butoxy]carbonyl]amino]-2,3,3a,4,5,5a,5b,6,7,7a,8,11,11a,11b,12,13,13a,13b-octadecahydro-5a,5b,8,8,11a-pentamethyl-1-(1-methylethenyl)-1H-cyclopenta[a]chrysen-9-yl]]	< 100 nM
C=C(C)[C@@H]1CC[C@]2(NC(=O)CN3CCN(CC)CC3)CC[C@]3(C)[C@H](CC[C@@H]4[C@@]5(C)CC=C(c6ccc(C(=O)O)cc6)C(C)(C)[C@@H]5CC[C@]43C)[C@@H]12 [Example 85, 4-((1R,3aS,5aR,5bR,7aR,11aS,11bR,13aR,13bR)-3a-(2-(4-ethylpiperazin-1-yl)acetamido)-5a,5b,8,8,11a-pentamethyl-1-(prop-1-en-2-yl)-2,3,3a,4,5,5a,5b,6,7,7a,8,11,11a,11b,12,13,13a,13b-octadecahydro-1H-cyclopenta[a]chrysen-9-yl)benzoic acid]	< 100 nM
C=C(C)[C@@H]1CC[C@]2(NCCN3CCN(S(=O)(=O)c4cn(C)cn4)CC3)CC[C@]3(C)[C@H](CC[C@@H]4[C@@]5(C)CC=C(c6ccc(C(=O)O)cc6)C(C)(C)[C@@H]5CC[C@]43C)[C@@H]12 [Example B43, 4-((1R,3aS,5aR,5bR,7aR,11aS,11bR,13aR,13bR)-5a,5b,8,8,11a-pentamethyl-3a-((2-(4-((1-methyl-1H-imidazol-4-yl)sulfonyl)piperazin-1-yl)ethyl)amino)-1-(prop-1-en-2-yl)-2,3,3a,4,5,5a,5b,6,7,7a,8,11,11a,11b,12,13,13a,13b-octadecahydro-1H-cyclopenta[a]chrysen-9-yl)benzoic acid]	< 100 nM

same assay, conditions: luciferase activity in cells infected for 4-5 days with NLRluc recombinants, serial dilutions of inhibitor; class symbols (key in Table 1); read-out: EC50

Structure (SMILES)	EC50
C=C(C)[C@@H]1CC[C@]2(NC(=O)C(c3ccccc3)N3CCS(=O)(=O)CC3)CC[C@]3(C)[C@H](CC[C@@H]4[C@@]5(C)CC=C(c6ccc(C(=O)O)cc6)C(C)(C)[C@@H]5CC[C@]43C)[C@@H]12 (single isomer, unassigned) [Example 92]	< 100 nM
